Molecular target: human PDE1B (Homo sapiens (Human), UniProt Q01064)
Test: PDE1B inhibitory assay (IMAP TR-FRET)
Settings: PDE1B pIC50, negative log of half-maximal molar inhibitory concentration; 200 nM FAM-cAMP, Calmodulin, CaCl2

Row | SMILES | IC50
1 | COc1ccc(Cn2c(=O)n3ncnc3c3c(CN4C[C@@H](C)O[C@@H](C)C4)csc32)cc1 [Example 78, 9-(((2S,6R)-2,6-Dimethylmorpholino)methyl)-6-(4-methoxybenzyl)thieno[3,2-e][1,2,4]triazolo[1,5-c]pyrimidin-5(6H)-one] | 100 to 1000 nM
2 | Cc1oc2c(c1C)c1ncnn1c(=O)n2Cc1ccc(Cl)cc1 [Example 79, 6-(4-Chlorobenzyl)-8,9-dimethylfuro[3,2-e][1,2,4]triazolo[1,5-c]pyrimidin-5(6H)-one] | 100 to 1000 nM
3 | O=c1n(Cc2ccccc2Cl)c2sc3c(c2c2ncnn12)CCCC3 [Example 81] | 1000 to 10000 nM
4 | CC1(C)Cc2c(sc3c2c2ncnn2c(=O)n3Cc2ccc(Cl)cc2)CO1 [Example 83] | 100 to 1000 nM
5 | O=c1n(Cc2ccccc2)c2sc3c(c2c2ncnn12)CCCC3 [Example 84] | 100 to 1000 nM
6 | O=c1n(Cc2cccc(Cl)c2)c2sc3c(c2c2ncnn12)CCCC3 [Example 85] | 100 to 1000 nM
7 | O=c1n(Cc2ccc(-c3ccccc3)cc2)c2sc3c(c2c2ncnn12)CCCC3 [Example 86] | 1000 to 10000 nM
8 | O=c1n(Cc2ccc(Cl)cc2)c2sc3c(c2c2ncnn12)CCOC3 [Example 87] | 100 to 1000 nM
9 | Cc1ccc(Cn2c(=O)n3ncnc3c3c4c(sc32)COCC4)cc1 [Example 88] | 100 to 1000 nM
10 | O=c1n(Cc2ccc(C(F)(F)F)cc2)c2sc3c(c2c2ncnn12)CCOC3 [Example 89] | 1000 to 10000 nM
11 | O=c1n(Cc2ccc(Cl)c(Cl)c2)c2sc3c(c2c2ncnn12)CCOC3 [Example 91] | 100 to 1000 nM
12 | O=c1n(Cc2ccc(F)cc2)c2sc3c(c2c2ncnn12)CCOC3 [Example 92] | 1000 to 10000 nM
13 | O=c1n(Cc2ccc(Cl)c(F)c2)c2sc3c(c2c2ncnn12)CCOC3 [Example 93] | 100 to 1000 nM
14 | O=c1n(Cc2ccc(Cl)cc2F)c2sc3c(c2c2ncnn12)CCOC3 [Example 94] | 100 to 1000 nM
15 | COc1ccc(Cn2c(=O)n3ncnc3c3c4c(sc32)COCC4)cc1F [Example 95] | 100 to 1000 nM
16 | O=c1n(Cc2ccc(OC(F)(F)F)cc2)c2sc3c(c2c2ncnn12)CCOC3 [Example 96] | 1000 to 10000 nM
17 | CCOc1ccc(Cn2c(=O)n3ncnc3c3c4c(sc32)COCC4)cc1 [Example 97] | 1000 to 10000 nM
18 | O=c1n(Cc2ccc(Cl)cc2)c2sc3c(c2c2ncnn12)CCNC3 [Example 99, 6-(4-Chlorobenzyl)-8,9,10,11-tetrahydropyrido[4′,3′:4,5]thieno[3,2-e][1,2,4]triazolo[1,5-c]pyrimidin-5(6H)-one] | 1000 to 10000 nM
19 | COc1ccc(Cn2c(=O)n3ncnc3c3c4c(sc32)NCCC4)cc1OC [Example 100] | 1000 to 10000 nM
20 | O=c1n(Cc2ccc(Cl)cc2)c2sc3c(c2c2ncnn12)CCN(CC(F)(F)F)C3 [Example 107] | 100 to 1000 nM
21 | COc1ccc(Cn2c(=O)n3ncnc3c3c4c(sc32)CN(Cc2ccc3c(c2)OC(F)(F)O3)CC4)cc1 [Example 114] | 100 to 1000 nM
22 | COc1ccc(Cn2c(=O)n3ncnc3c3c4c(sc32)CN(C2CS(=O)(=O)C2)CC4)cc1 [Example 124] | 100 to 1000 nM
23 | COc1ccc(Cn2c(=O)n3ncnc3c3c4c(sc32)CN(C(C)C(F)F)CC4)cc1 (stereo not drawn) [Example 151] | 100 to 1000 nM
24 | COc1ccc(Cn2c(=O)n3ncnc3c3c4c(sc32)N(Cc2ccc(Cl)cc2)CCC4)cc1 [Example 152] | 100 to 1000 nM
25 | COc1ccc(Cn2c(=O)n3ncnc3c3c4c(sc32)N(Cc2ccc(Cl)cc2)CCC4)cc1OC [Example 153] | 1000 to 10000 nM
26 | COc1ccc(Cn2c(=O)n3ncnc3c3c4c(sc32)N(Cc2cccc(Cl)c2)CCC4)cc1OC [Example 155] | 1000 to 10000 nM
27 | COc1ccc(Cn2c(=O)n3ncnc3c3c4c(sc32)CN(C(=O)C2CCN(C)C2)CC4)cc1 (stereo not drawn) [Example 163] | 100 to 1000 nM

Same assay, conditions: negative log of half-maximal molar inhibitory concentration; 200 nM FAM-cAMP, Calmodulin, CaCl2

Row | SMILES | PDE1B pIC50
28 | COc1ccc(Cn2c(=O)n3ncnc3c3c4c(sc32)CN(C(=O)OC(C)(C)C)CC4)cc1 [Example 80, tert-Butyl 6-(4-methoxybenzyl)-5-oxo-5,6,10,11-tetrahydropyrido[4′,3′:4,5]thieno[3,2-e][1,2,4]triazolo[1,5-c]pyrimidine-9(8H)-carboxylate] | >7
29 | COc1ccc(Cn2c(=O)n3ncnc3c3c4c(sc32)COCC4)cc1 [Example 90] | >7
30 | COc1c(F)cc(Cn2c(=O)n3ncnc3c3c4c(sc32)COCC4)cc1F [Example 98] | <5
31 | COc1ccc(Cn2c(=O)n3ncnc3c3c4c(sc32)CN(Cc2nnc(C)s2)CC4)cc1 [Example 108] | >7
32 | COc1ccc(Cn2c(=O)n3ncnc3c3c4c(sc32)CN(CC2CC2)CC4)cc1 [Example 110] | >7
33 | COc1ccc(Cn2c(=O)n3ncnc3c3c4c(sc32)CN(CC2(C)COC2)CC4)cc1 [Example 111] | >7
34 | COc1ccc(Cn2c(=O)n3ncnc3c3c4c(sc32)CN(CCCSC)CC4)cc1 [Example 112] | >7
35 | COc1ccc(Cn2c(=O)n3ncnc3c3c4c(sc32)CN(CC2CCOC2)CC4)cc1 (stereo not drawn) [Example 113] | >7
36 | COc1ccc(Cn2c(=O)n3ncnc3c3c4c(sc32)CN(CC(C)(C)C)CC4)cc1 [Example 115] | >7
37 | COc1ccc(Cn2c(=O)n3ncnc3c3c4c(sc32)CN(Cc2ncccn2)CC4)cc1 [Example 116] | >7
38 | COc1ccc(Cn2c(=O)n3ncnc3c3c4c(sc32)CN(CC2CCCCO2)CC4)cc1 (stereo not drawn) [Example 117] | >7
39 | COc1ccc(Cn2c(=O)n3ncnc3c3c4c(sc32)CN(CCCS(C)(=O)=O)CC4)cc1 [Example 118] | >7
40 | COc1ccc(Cn2c(=O)n3ncnc3c3c4c(sc32)CN(Cc2ccncn2)CC4)cc1 [Example 119] | >7
41 | COc1ccc(Cn2c(=O)n3ncnc3c3c4c(sc32)CN(Cc2ccccn2)CC4)cc1 [Example 120] | >7
42 | COc1ccc(Cn2c(=O)n3ncnc3c3c4c(sc32)CN(Cc2ccncc2)CC4)cc1 [Example 121] | >7
43 | COc1ccc(Cn2c(=O)n3ncnc3c3c4c(sc32)CN(Cc2nccn2C)CC4)cc1 [Example 122] | >7
44 | COc1ccc(Cn2c(=O)n3ncnc3c3c4c(sc32)CN(Cc2scnc2C)CC4)cc1 [Example 123] | >7
45 | COc1ccc(Cn2c(=O)n3ncnc3c3c4c(sc32)CN(CC2COCCO2)CC4)cc1 (stereo not drawn) [Example 125] | >7
46 | COc1ccc(Cn2c(=O)n3ncnc3c3c4c(sc32)CN(CC2CCC(=O)O2)CC4)cc1 (stereo not drawn) [Example 126] | >7
47 | COc1ccc(Cn2c(=O)n3ncnc3c3c4c(sc32)CN(Cc2ccc(F)cc2)CC4)cc1 [Example 127] | >7
48 | COc1ccc(Cn2c(=O)n3ncnc3c3c4c(sc32)CN(Cc2ccccc2F)CC4)cc1 [Example 128] | >7
49 | O=c1n(Cc2ccc(Cl)cc2F)c2sc3c(c2c2ncnn12)CCN(Cc1ccccn1)C3 [Example 130] | >7
50 | Cn1ccnc1CN1CCc2c(sc3c2c2ncnn2c(=O)n3Cc2ccc(Cl)cc2F)C1 [Example 131] | >7

Row | SMILES | PDE1B pIC50
51 | O=c1n(Cc2ccc(Cl)cc2F)c2sc3c(c2c2ncnn12)CCN(Cc1ncccn1)C3 [Example 132] | >7
52 | COc1ccc(Cn2c(=O)n3ncnc3c3c4c(sc32)CN(CC2CCCOC2)CC4)cc1 (stereo not drawn) [Example 134] | >7
53 | COc1ccc(Cn2c(=O)n3ncnc3c3c4c(sc32)CN(CC2CCCOC2)CC4(F)F)cc1 (stereo not drawn) [Example 136] | >7
54 | COc1ccc(Cn2c(=O)n3ncnc3c3c4c(sc32)CN(Cc2ncccn2)CC4)c(F)c1 [Example 137] | >7
55 | COc1ccc(Cn2c(=O)n3ncnc3c3c4c(sc32)CN(Cc2nccn2C)CC4)c(F)c1 [Example 138] | >7
56 | COc1ccc(Cn2c(=O)n3ncnc3c3c4c(sc32)CN(Cc2ccccn2)CC4)c(F)c1 [Example 139] | >7
57 | COc1ccc(Cn2c(=O)n3ncnc3c3c4c(sc32)CN(CC2CCOC2)CC4)c(F)c1 (stereo not drawn) [Example 140] | >7
58 | COc1ccc(Cn2c(=O)n3ncnc3c3c4c(sc32)CN(CC2CCCOC2)CC4)c(F)c1 (stereo not drawn) [Example 142] | >7
59 | COc1ccc(Cn2c(=O)n3ncnc3c3c4c(sc32)CN(CC2CCOC2)CCC4)cc1 (stereo not drawn) [Example 143] | >7
60 | COc1ccc(Cn2c(=O)n3ncnc3c3c4c(sc32)CN(Cc2nccn2C)CCC4)cc1 [Example 144] | >7
61 | COc1ccc(Cn2c(=O)n3ncnc3c3c4c(sc32)CN(Cc2ncccn2)CCC4)cc1 [Example 145] | >7
62 | COc1ccc(Cn2c(=O)n3ncnc3c3c4c(sc32)CN(Cc2ccccn2)CCC4)cc1 [Example 146] | >7
63 | COc1ccc(Cn2c(=O)n3ncnc3c3c4c(sc32)CN(CC2CCOCC2)CCC4)cc1 [Example 147] | >7
64 | COc1ccc(Cn2c(=O)n3ncnc3c3c4c(sc32)N(CC2CCOCC2)CCC4)cc1 [Example 148] | >7
65 | COc1ccc(Cn2c(=O)n3ncnc3c3c4c(sc32)N(CC2CCCOC2)CCC4)cc1 (stereo not drawn) [Example 149] | >7
66 | COc1ccc(Cn2c(=O)n3ncnc3c3c4c(sc32)N(CC2CCOC2)CCC4)cc1 (stereo not drawn) [Example 150] | >7
67 | COc1ccc(Cn2c(=O)n3ncnc3c3c4c(sc32)CN(CC2CCOCC2)CC4(F)F)c(F)c1 [Example 156] | >7
68 | O=C(c1cnccn1)N1CCc2c(sc3c2c2ncnn2c(=O)n3Cc2ccc(Cl)cc2)C1 [Example 157, 6-(4-Chlorobenzyl)-9-(pyrazine-2-carbonyl)-8,9,10,11-tetrahydropyrido[4′,3′:4,5]thieno[3,2-e][1,2,4]triazolo[1,5-c]pyrimidin-5(6H)-one] | >7
69 | COc1ccc(Cn2c(=O)n3ncnc3c3c4c(sc32)CN(C(=O)C2CC2)CC4)cc1 [Example 159] | >7
70 | COc1ccc(Cn2c(=O)n3ncnc3c3c4c(sc32)CN(S(C)(=O)=O)CC4)cc1 [Example 162] | >7
71 | O=C(C1CC1)N1CCc2c(sc3c2c2ncnn2c(=O)n3Cc2ccc(Cl)cc2F)C1 [Example 164] | >7
72 | COc1ccc(Cn2c(=O)n3ncnc3c3c4c(sc32)CN(C(=O)C2CCOC2)CC4(F)F)cc1 (stereo not drawn) [Example 166] | >7

From patent US10105367B2, “Therapeutic thiophene-, furan-, and pyridine-fused azolopyrimidin-5-(6h)-ones” (Dart Neuroscience (Cayman) Ltd., priority 2012, dated 2018)
